The values below are quoted from earlier work in PMC8891573, “Dysregulation of the Nitric Oxide/Dimethylarginine Pathway in Hypoxic Pulmonary Vasoconstriction—Molecular Mechanisms and Clinical Significance” (Frontiers in Medicine, 2022).

Where two headings read alike, the source gives them in different places.

One series has as its system CAT-2. Also on record: method as in PMID 28684763, PMID 9701046.
The next series has as its system eNOS. As to conditions: for effect on NOS activity: competition with L-arginine for the NOS catalytic site.
The subject of the next series is ETA and ETB receptors. Also on record: method as in PMID 8847282, PMID 8873714, PMID 20415698. As to conditions: animal models and clinical studies.
Details of series [1]: method as in PMID 9799202.
Another series concerns mouse lungs. On the set-up: method as in PMID 19648472. As to conditions: oral L-arginine treatment.
The conditions of series [2]: inhaled NO, small trials.
A further series relates to isolated aortic rings. Also on record: method as in PMID 2870025.
A further series concerns mice. Also on record: method as in PMID 17068215. As to conditions: acute HX exposure, HC or SC mice, i.p. injection of ADMA.

`CN=C(NC)NCCC[C@H](N)C(=O)O` [SDMA, symmetric dimethylarginine]: in the series on CAT-2, the “inhibition of CAT-2, cellular uptake transporter for L-arginine” value is reported as “may inhibit”. For the same compound, in the series on eNOS, the “effect on NOS activity” value is given as “unable to directly interfere with NOS activity”.
For the compound `COc1ccccc1Oc1c(NS(=O)(=O)c2ccc(C(C)(C)C)cc2)nc(-c2ncccn2)nc1OCCO` [bosentan], the “effect on HPV” value with ETA and ETB receptors is given as “variable effects”.
Consider `N=C(N)NCCC[C@H](N)C(=O)O` [L-arginine], for which the “reversal of impaired NO generation and endothelial dysfunction due to elevated ADMA” value in series [1] is “reversible”. For the same compound, in the series on mouse lungs, the “PRMT2, DDAH2, ADMA and nitrotyrosine changes in ovalbumin-treated mice” value was “PRMT2 ↑ and DDAH2 ↓ in ovalbumin-treated mice, along with ↑ ADMA and ↑ nitrotyrosine; Reversal with oral L-arginine treatment”.
With Nitric oxide [NO], the “effects on COVID-19-associated hypoxaemia and outcome” value in series [2] is reported as “inconclusive”.
On to `CC(=O)OCC[N+](C)(C)C` [acetylcholine], for which the “vascular response of aortic rings” value with isolated aortic rings (Wistar rats) is given as “endothelium-dependent vasodilation”; with isolated aortic rings (spontaneously hypertensive rats (SHR)), “vasoconstriction”.
Consider `CN(C)C(N)=NCCC[C@H](N)C(=O)O` [ADMA, asymmetric dimethylarginine], for which the HX survival time result in the series with mice was “ADMA increased HX survival time in HC and in SC mice; the effect was mediated by regulation of eNOS activity”. Besides, the “inhibition of CAT-2, cellular uptake transporter for L-arginine” value in the series with CAT-2 is recorded as “may inhibit”. Moreover, in the series on eNOS, the “inhibition of eNOS” value was “competitive inhibitor” and the “effect on NOS activity” value was “competitively inhibits NOS activity”.
